Source: patent US9102617B2, “Antimicrobial agents” (Rutgers, The State University of New Jersey, priority 2010, dated 2015)
Where two headings read alike, the source gives them in different places.

What was measured:
[1] = system: methicillin-sensitive Staphylococcus aureus (MSSA); test: Planktonic antibacterial broth microdilution assay (Test C), MIC vs MSSA; assay type: cell-based; details: 37° C., growth read after 24 to 48 hours at OD 600 nm
Protocol: (§1) Test C. Planktonic (Free-Living) Antibacterial Assay.
(§2) Planktonic antibacterial activity can be determined using a broth microdilution assay in which log-phase bacteria are grown at 37° C. in appropriate medium containing two-fold serial dilutions of a compound to yield a final concentration ranging from 256 to 0.1 μg/ml. For determination of minimal inhibitory concentration (MIC) values, bacterial growth is monitored after 24 to 48 hours by measuring optical density at 600 nm. […] The minimal inhibitory concentration against methicillin-sensitive Staphylococcus aureus (MSSA) for each of the following representative compounds of the invention was determined to be less than 32 μg/ml.

[2] = system: methicillin-resistant Staphylococcus aureus (MRSA); test: Planktonic antibacterial broth microdilution assay (Test C), MIC vs MRSA; assay type: cell-based; details: read-out: MIC vs MRSA
Protocol: as §1, §2
Representative compounds of the invention were also tested against methicillin-resistant Staphylococcus aureus, vancomycin-resistant Enterococcus faecalis and Enterococcus faecium (VRE), vancomycin-sensitive Enterococcus faecalis and Enterococcus faecium (VSE).

[3] = target: T1, S. aureus FtsZ (Staphylococcus aureus, UniProt P0A031); test: Inhibition of S. aureus FtsZ polymerization and GTPase activity (Tests A and B); assay type: biochemical
T1 sequence (P0A031 1-390): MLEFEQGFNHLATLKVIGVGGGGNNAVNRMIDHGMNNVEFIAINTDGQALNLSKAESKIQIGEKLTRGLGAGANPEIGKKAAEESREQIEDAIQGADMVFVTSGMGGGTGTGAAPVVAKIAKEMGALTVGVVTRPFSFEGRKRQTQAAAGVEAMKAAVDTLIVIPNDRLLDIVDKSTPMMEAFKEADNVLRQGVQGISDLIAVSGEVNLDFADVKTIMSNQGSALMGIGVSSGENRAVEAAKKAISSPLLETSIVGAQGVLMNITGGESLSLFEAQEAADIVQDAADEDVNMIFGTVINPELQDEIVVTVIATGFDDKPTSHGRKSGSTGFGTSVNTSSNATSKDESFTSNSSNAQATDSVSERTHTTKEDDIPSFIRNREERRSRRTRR
Source text: Test A. Determining the Impact of the Compounds of the Invention on FtsZ Polymerization Dynamics.
Compound-induced alteration in FtsZ polymerization dynamics can be tested using a light scattering-based […] using purified FtsZ. Upon addition of GTP, FtsZ self-associates to form polymeric structures that scatter light at 340 nm to a greater extent than the monomeric protein. The impact of the compounds of the invention on the polymerization dynamics of FtsZ can be detected by an increase of decrease in the extent of GTP-induced light scattering relative to that observed in the absence of compound. Quantitation of the overall extent of light scattering as a function of compound concentration to yield a compound concentration at which FtsZ polymerization is inhibited by 50% (IC50) provides an indication of the potency of that compound at altering FtsZ polymerization dynamics.
Test B. Determining the FtsZ GTPase Inhibitory Activities of Compounds of the Invention.
Compound-induced inhibition of the FtsZ GTPase activity can be tested using a colorimetric assay in which the inorganic phosphate (Pi) released upon FtsZ-catalyzed hydrolysis of GTP reacts with malachite green and molybdate under acidic conditions to form a ternary complex that absorbs light at 650 nm, thus enabling quantitation of Pi levels by recording the absorbance at 650 nm (A650). Differing concentrations of test compound are combined with GTP and the reactions (run in triplicate) are initiated by addition of FtsZ. After incubation for 60 minutes at room temperature, the reactions are stopped by addition of an acidic malachite green-molybdate solution containing malachite green oxalate, sodium molybdate, Triton X-100, and 0.7 N HCl. For the purposes of generating a standard curve, each experiment includes reactions containing known concentrations of monobasic potassium phosphate (KH2PO4) in place of FtsZ. Ten minutes following addition of the acidic malachite green-molybdate solution, the A650 value for each reaction is recorded. A standard curve of A650 versus Pi concentration is constructed using the average A650 value obtained for each known KH2PO4 concentration. This standard curve is then fit by linear regression analysis to yield the quantitative relationship between A650 and Pi concentration. The resulting relationship as well as the average A650 value for each test reaction is used to calculate the concentrations of Pi released by the GTPase activity of FtsZ. The released Pi concentration in the absence of test compound is set as the mark for 100% GTPase activity, and is used to calculate the percent GTPase activities in reactions containing test compounds. The percent GTPase activity is then plotted as a function of log (compound concentration), with the resulting curves being fit using an appropriate sigmoidal relationship to obtain the compound concentrations at which GTPase activity is inhibited by 50% (IC50 values).

[4] = broth microdilution, 37° C., growth read after 24 to 48 hours at OD 600 nm
[5] = S. aureus FtsZ, polymerization and/or GTPase activity, read-out: IC50 (compound concentration at which FtsZ polymerization and/or GTPase activity is inhibited by 50%)

SMILES | MIC [1] | also measured
CC(C)(C)c1ccc(-c2cccc3c(CC(=N)N)cccc23)cc1 [Example 56] | ≤ 8 µg/mL | MIC [2, 4]: ≤ 8 µg/mL
CN(C)CCNCc1ccccc1-c1ccc2c(-c3ccc(C(C)(C)C)cc3)cccc2c1 [Example 59] | ≤ 8 µg/mL | MIC [2, 4]: ≤ 8 µg/mL
COc1cc(-c2cc3ccccc3[n+](C)c2)cc(-c2ccc(C(C)(C)C)cc2)c1OC.[I-] [Example 11] | ≤ 8 µg/mL | MIC [2, 4]: ≤ 8 µg/mL
CC(C)(C)c1ccc(-c2cccc3c(CNC(=N)N)cccc23)cc1 [Example 42] | ≤ 8 µg/mL | MIC [2, 4]: ≤ 8 µg/mL; IC50 [3, 5]: < 151 µM
C[n+]1cccc2cc(-c3ccc(-c4ccccc4)cc3)ccc21.[I-] [Example 114] | ≤ 8 µg/mL | MIC [2, 4]: ≤ 8 µg/mL; IC50 [3, 5]: < 118 µM
CC(C)(C)c1ccc(-c2cccc3cc(-c4ccccc4CNC(=N)N)ccc23)cc1 [Example 104] | ≤ 8 µg/mL | IC50 [3, 5]: < 123 µM
C[n+]1cc(-c2cc(-c3ccccc3)cc(-c3ccccc3)c2)cc2ccccc21.[I-] [Example 35] | ≤ 8 µg/mL | MIC [2, 4]: ≤ 8 µg/mL
N=C(N)NCc1cccc2c(-c3ccc(Br)cc3)cccc12 [Example 51, 1-((5-(4-bromophenyl)naphthalen-1-yl)methyl)guanidine] | ≤ 8 µg/mL | 
COc1ccc(CNC(=N)N)c(-c2ccc3c(-c4ccc(C(C)(C)C)cc4)cccc3c2)c1OC [Example 102] | ≤ 8 µg/mL | 
C[n+]1cccc2cccc(-c3ccc(-c4ccccc4)cc3)c21.[I-] [Example 118] | 16 µg/mL | 
C[n+]1cccc2c(-c3ccc(-c4ccccc4)cc3)cccc21.[I-] [Example 122] | ≤ 8 µg/mL | 
CC(C)(C)c1ccc(-c2cccc3cc(-c4ccc(C(=O)O)cc4CN)ccc23)cc1.Cl [Example 88] | > 64 µg/mL | 
CC(C)(C)c1ccc(-c2cccc3cc(-c4cccc([N+](C)(C)C)c4)ccc23)cc1.[I-] [Example 65] | ≤ 8 µg/mL | 
COc1cc(-c2cc3ccc(OC)c(OC)c3[n+](C)c2)cc(-c2ccc(C(C)(C)C)cc2)c1OC.[I-] [Example 30] | ≤ 8 µg/mL | 
C[n+]1cc(-c2cc(F)c(F)c(-c3ccc(-c4ccccc4)cc3)c2)cc2ccccc21.[I-] [Example 33] | ≤ 8 µg/mL | 
C[n+]1cccc2ccccc21.[I-] [Comparative Example A, reference compound] | > 64 µg/mL | 
NC(N)=NCc1cccc2c(-c3ccc(C4CC4)cc3)cccc12 [Example 46] | ≤ 8 µg/mL | 
C[N+](C)(C)c1cccc(-c2ccc3c(-c4ccc(C(F)(F)F)cc4)cccc3c2)c1.[I-] [Example 97] | ≤ 8 µg/mL | 
N=C(N)NCCc1cccc2c(-c3ccc(C(F)(F)F)cc3)cccc12 [Example 55] | ≤ 8 µg/mL | 
COc1cc2cc(-c3cc(OC)c(OC)c(-c4ccc(C5CCCCC5)cc4)c3)c[n+](C)c2cc1OC.[I-] [Example 21] | ≤ 8 µg/mL | 
CC(C)(C)c1ccc(-c2cccc3c(CCN)cccc23)cc1 [Example 36] | ≤ 8 µg/mL | MIC [2, 4]: ≤ 8 µg/mL
C[N+](C)(C)c1cccc(-c2ccc3c(-c4cccc(-c5ccccc5)c4)cccc3c2)c1.[I-] [Example 67] | ≤ 8 µg/mL | 
Cc1cc(C(F)(F)F)ccc1-c1cccc2c(CN=C(N)N)cccc12 [Example 47] | ≤ 8 µg/mL | 
CN(C)Cc1cccc(-c2ccc3c(-c4cccc(-c5ccccc5)c4)cccc3c2)c1 [Example 71] | ≤ 8 µg/mL | 
COc1cc(-c2cc3ccccc3[n+](C)c2)cc(-c2cc(-c3ccc(F)cc3)cc(-c3ccc(F)cc3)c2)c1OC.[I-] [Example 8] | ≤ 8 µg/mL | 

SMILES | MIC [1] | also measured
COc1ccc(-c2ccc3c(-c4ccc(C(C)(C)C)cc4)cccc3c2CNC(=N)N)c(OC)c1OC [Example 58] | ≤ 8 µg/mL | 
CN(C)Cc1cc(C(=O)O)ccc1-c1ccc2c(-c3ccc(C(C)(C)C)cc3)cccc2c1.Cl [Example 85] | ≤ 8 µg/mL | 
C[N+](C)(C)Cc1cccc(-c2ccc3c(-c4cccc(-c5ccccc5)c4)cccc3c2)c1.[I-] [Example 72] | ≤ 8 µg/mL | 
C[n+]1ccc(-c2ccc(-c3ccccc3)cc2)c2ccccc21.[I-] [Example 120] | ≤ 8 µg/mL | MIC [2]: > 32 µg/mL; IC50 [3]: < 118 µM
COc1c(CCN)ccc(-c2ccc3c(-c4ccc(C(C)(C)C)cc4)cccc3c2)c1OC.Cl [Example 106] | ≤ 8 µg/mL | 
COc1cc2cc(-c3cc(OC)c(OC)c(-c4ccc(C(C)(C)C)cc4)c3)c[n+](C)c2cc1OC.[I-] [Example 16] | ≤ 8 µg/mL | 
CC(C)(C)c1ccc(-c2ccc(CN=C(N)N)c3ccccc23)cc1 [Example 40] | ≤ 8 µg/mL | 
COc1cc(-c2cc3cc4c(cc3[n+](C(C)C)c2)OCO4)cc(-c2ccc(-c3ccccc3)cc2)c1OC.[I-] [Example 25] | ≤ 8 µg/mL | 
CCC[n+]1cc(-c2cc(OC)c(OC)c(-c3ccc(C(C)(C)C)cc3)c2)cc2cc(OC)c(OC)cc21.[I-] [Example 19] | ≤ 8 µg/mL | MIC [2, 4]: ≤ 8 µg/mL; IC50 [3, 5]: < 79.7 µM
COc1cc2c(-c3ccc(-c4ccccc4)cc3)ccc([N+](C)(C)C)c2cc1OC.[I-] [Example 50] | ≤ 8 µg/mL | 
CNCc1cc(C(=O)OC)ccc1-c1ccc2c(-c3ccc(C(C)(C)C)cc3)cccc2c1 [Example 86, methyl 4-(1-(4-t-butylphenyl)naphthalen-6-yl)-3-((methylamino)methyl)benzoate] | ≤ 8 µg/mL | 
CNCc1cc(C(=O)O)ccc1-c1ccc2c(-c3ccc(C(C)(C)C)cc3)cccc2c1.Cl [Example 87] | ≤ 8 µg/mL | 
CC(C)(C)c1ccc(-c2cccc(-c3cccc4cc(-c5cccc([N+](C)(C)C)c5)ccc34)c2)cc1.[I-] [Example 78] | ≤ 8 µg/mL | 
C[n+]1cccc2ccc(-c3ccc(-c4ccccc4)cc3)cc21.[I-] [Example 116] | ≤ 8 µg/mL | MIC [2, 4]: 16 µg/mL
CC(C)(C)c1ccc(-c2cccc3c(CN)cccc23)cc1 [Example 41] | ≤ 8 µg/mL | MIC [2, 4]: ≤ 8 µg/mL; IC50 [3, 5]: < 173 µM
CC(C)(C)c1ccc(-c2ccc(CCN=C(N)N)c3ccccc23)cc1 [Example 39] | ≤ 8 µg/mL | 
COc1cc(-c2cc3ccccc3[n+](C)c2)cc(-c2ccc(-c3ccccc3)cc2)c1OC.[I-] [Example 2] | ≤ 8 µg/mL | 
CNCc1ccccc1-c1ccc2c(-c3ccc(C(C)(C)C)cc3)cccc2c1 [Example 61] | ≤ 8 µg/mL | MIC [2, 4]: ≤ 8 µg/mL
COc1cc(-c2cc3ccccc3nc2CN)cc(-c2ccc(C(C)(C)C)cc2)c1OC [Example 31] | ≤ 8 µg/mL | 
NCc1cccc(-c2ccc3c(-c4cccc(-c5ccccc5)c4)cccc3c2)c1 [Example 70] | ≤ 8 µg/mL | MIC [2, 4]: ≤ 8 µg/mL
CC(C)(C)c1ccc(-c2cccc3cc(-c4ccccc4CNCCN)ccc23)cc1 [Example 62] | ≤ 8 µg/mL | MIC [2, 4]: ≤ 8 µg/mL
C[N+](C)(C)c1ccc(-c2ccc3c(-c4ccc(-c5ccccc5)cc4)cccc3c2)cc1.[I-] [Example 95] | ≤ 8 µg/mL | 
CC(C)(C)c1ccc(-c2cccc3c(CCN=C(N)N)cccc23)cc1 [Example 37] | ≤ 8 µg/mL | MIC [2, 4]: ≤ 8 µg/mL
N=C(N)NCc1cccc2c(-c3ccc(C(F)(F)F)cc3)cccc12 [Example 53] | ≤ 8 µg/mL | 
